# From patent US20190159455A1 (priority 2016, published 2019)
# Where two headings read alike, the source gives them in different places.
# Tested on: Phytophthora infestans(Phytin)
# Format: cell-based
# Settings: 7 days after inoculation
Compound,Observed efficacy (1 ppm),Observed efficacy (4 ppm)
"O=C(NCCc1ncc(C(F)(F)F)cc1Cl)c1ccccc1C(F)(F)F [Fluopyram, fluopyram]",10,
"c1ccc(-c2noc(-c3cccs3)n2)cc1 [Tioxazafen, tioxazafen]",,7
